Assays:
[1] = tested on: NO production in LPS-activated BV-2 cells; assay: NO production assay (Griess reagent) in LPS-activated BV-2 cells; type: cell-based; conditions: Mus musculus; LPS-stimulated BV-2 cells; samples 1 h before 100 ng/mL LPS, 24 h incubation; read-out: IC50, concentration that caused 50% inhibition of NO production
Method: (§1) The BV-2 mouse microglial cells were generously provided by Dr. Sun Yeou Kim at Kyunghee University (Suwon, Korea). The cells were maintained in DMEM containing 10% FBS with 1% PS at 37 °C in a humidified atmosphere of 95% air and 5% CO2. All tested fractions and samples were dissolved in DMSO (final concentration in cultures ≤0.1%).
(§2) To evaluate NO production, we seeded BV-2 cells in 96-well plates (4 × 10^5 cells/mL) for 24 h and then treated them with various concentrations of the samples for 1 h before exposure to 100 ng/mL of LPS. After the 24 h incubation, the nitrite in the culture media was measured to assess NO production in the BV-2 cells with the Griess reagent (1% sulfanilamide and 0.1% naphtylethylenediamine dihydrochloride in 2% phosphoric acid). In 96-well plates, 100 μL of sample aliquots were mixed with 100 μL of Griess reagent and incubated at room temperature for 15 min. The absorbance at 550 nm was measured on a microplate reader. The concentration was determined with a nitrite standard curve. Cell viability was assessed by the MTT assay. After exposing the cells to 2 mg/mL MTT for 2 h, the absorbance was measured by an ELISA plate reader at 562 nm.

[2] = tested on: cyclooxygenase-2 (COX-2) protein expression; assay: Western blot of COX-2 expression in LPS-activated BV-2 microglia; type: cell-based, mouse; conditions: result in words
Method: Cells were harvested and lysed with radioimmunoprecipitation (RIPA) buffer (Bio-Rad, Hercules, CA USA). Cell lysates were centrifuged, and the supernatant was collected. The protein concentration was determined by protein assay reagents (Bio-Rad). The proteins were separated onto 10% SDS-polyacrylamide gel and transferred to polyvinylidene fluoride (PVDF) membrane. The membranes were blocked with 5% non-fat dry milk in Tris-buffered saline with 0.1% Tween-20 (TBS-T) buffer for 1 h at room temperature and then incubated with primary antibodies in TBS-T buffer containing 1% non-fat dry milk overnight at 4 °C. The membranes were washed with TBS-T buffer and incubated with goat anti-rabbit or anti-mouse horseradish peroxidase-conjugated IgG secondary antibodies from Santa Cruz Biotechnology (Santa Cruz, CA, USA) for 2 h. The membranes were washed with TBS-T buffer, and the antigen-antibody complex was detected with an enhanced chemiluminescence detection system (GE Healthcare, Milwaukee, MI, USA).

PGE2 = PGE2 ELISA in LPS-activated BV-2 microglia; type: cell-based, mouse; conditions: pre-treatment, dose-dependent, result in words
Method: (§3) BV-2 microglial cells were cultured in 96-well plates, preincubated for 30 min. with different concentrations of compounds 1 and 7 and then stimulated for 24 h with LPS (Sigma-Aldrich Co.). Supernatant from the culture (100 μL) was collected to determine the concentration of PGE2, TNF-α, IL-1β, and IL-6, respectively, with ELISA kits (TNF-α, Abcam, Cambridge, MA, USA; PGE2, IL-1β, and IL-6, R&D Systems, Minneapolis, MN, USA).

TNF-α = TNF-α ELISA in LPS-activated BV-2 microglia; type: cell-based, mouse; conditions: pre-treatment, dose-dependent, result in words
Method: as §3

IL-6 = IL-6 ELISA in LPS-activated BV-2 microglia; type: cell-based, mouse; conditions: pre-treatment, dose-dependent, result in words
Method: as §3

[3] = Cell viability by MTT assay; type: cell-based, mouse; conditions: mouse, BV-2 microglial cells; MTT assay after treatment with 100 μM of each compound for 24 h; mean ± SD
Method: as §1, §2

BV-2 cells = assay: Cell viability by MTT assay; type: cell-based, mouse; conditions: BV-2 cells, result in words
Method: as §1, §2

IL-1β = IL-1β ELISA in LPS-activated BV-2 microglia; type: cell-based, mouse; conditions: pre-treatment, dose-dependent, result in words
Method: as §3

| SMILES | IC50 [1] [µM] | Protein level of COX-2 increased by LPS treatment [2] | Level of PGE2 (PGE2) | Level of TNF-α (TNF-α) | Level of IL-6 (IL-6) | viability at 24 h, 100 μM [3] [%] | Cytotoxicity (BV-2 cells) | Level of IL-1β (IL-1β) |
| --- | --- | --- | --- | --- | --- | --- | --- | --- |
| C=C1[C@@H]2CC[C@H]3[C@]4(C)C[C@H](O)CC(C)(C)[C@H]4CC[C@]3(C2)[C@H]1O [Compound 1, 2β,15α-dihydroxy-ent-kaur-16-ene] | 13.9 | down-regulated | effectively decreased | effectively decreased | effectively decreased | 90.7 ± 7.3 | without any cytotoxicity | effectively decreased |
| C=C1[C@@H]2CC[C@H]3[C@]4(C)C[C@H](O)C[C@](C)(CO)[C@H]4CC[C@]3(C2)[C@H]1O [Compound 3, pterokaurane M1] | 84 |  |  |  |  | 87.7 ± 2.9 |  |  |
| C=C1[C@@H]2CC[C@H]3[C@]4(C)C[C@H](O)CC(C)(C)[C@H]4[C@H](O)C[C@]3(C2)[C@H]1O [Compound 6, 2β,6β,15α-trihydroxy-ent-kaur-16-ene] | 137 |  |  |  |  | 85.9 ± 0.1 |  |  |
| C=C1[C@@H]2CC[C@H]3[C@]4(C)C[C@H](O)CC(C)(C)[C@H]4CC[C@]3([C@@H]2O)[C@H]1O [Compound 7, pterokaurane P1] | 10.8 | down-regulated | effectively decreased | effectively decreased | effectively decreased | 88.7 ± 2.4 | without any cytotoxicity | effectively decreased |
| CC1(C)C[C@@H](O)C[C@]2(C)[C@@H]1CC[C@@]13C[C@@H](CC[C@H]12)[C@](C)(O)C3 [Compound 9, 2β,16α-dihydroxy-ent-kaurane] | 122 |  |  |  |  | 97.5 ± 1.3 |  |  |
| C[C@]1(CO)C[C@@H](O)C[C@]2(C)[C@@H]1CC[C@@]13C[C@@H](CC[C@H]12)[C@](C)(O)C3 [Compound 11, pterokaurane R] | 171 |  |  |  |  | 83.2 ± 10.2 |  |  |

Now from value to compound, other results behind:

| IC50 [1] [µM] | SMILES | Protein level of COX-2 increased by LPS treatment [2] | Level of PGE2 (PGE2) | Level of TNF-α (TNF-α) | Level of IL-6 (IL-6) | viability at 24 h, 100 μM [3] [%] | Cytotoxicity (BV-2 cells) | Level of IL-1β (IL-1β) |
| --- | --- | --- | --- | --- | --- | --- | --- | --- |
| 92 | C=C1[C@@H]2CC[C@H]3[C@]4(C)C[C@H](O[C@@H]5O[C@H](CO)[C@@H](O)[C@H](O)[C@H]5O)CC(C)(C)[C@H]4CC[C@]3(C2)[C@H]1O [Compound 2, creticoside A] |  |  |  |  | 95.7 ± 4 |  |  |
| 148 | C=C1[C@@H]2CC[C@H]3[C@]4(C)C[C@H](O[C@@H]5O[C@H](CO)[C@@H](O)[C@H](O)[C@H]5O)C[C@](C)(CO)[C@H]4CC[C@]3(C2)[C@H]1O [Compound 4, pterokaurane M1 2-O-β-D-glucopyranoside] |  |  |  |  | 90.5 ± 10.2 |  |  |
| 148 | C=C1[C@@H]2CC[C@H]3[C@]4(C)C[C@H](O[C@@H]5O[C@H](CO)[C@@H](O)[C@H](O)[C@H]5O)C[C@@](C)(CO)[C@H]4CC[C@]3(C2)[C@H]1O [Compound 5, 2β,15α,19-trihydroxy-ent-kaur-16-ene 2-O-β-D-gluco-pyranoside] |  |  |  |  | 73.6 ± 2.9 |  |  |
| 101 | C=C1[C@@H]2CC[C@H]3[C@]4(C)C[C@H](O[C@@H]5O[C@H](CO)[C@@H](O)[C@H](O)[C@H]5O)CC(C)(C)[C@H]4CC[C@]3([C@@H]2O)[C@H]1O [Compound 8, pterokaurane P1 2-O-β-D-glucopyranoside] |  |  |  |  | 91.7 ± 3.7 |  |  |
| 182 | CC1(C)C[C@@H](O[C@@H]2O[C@H](CO)[C@@H](O)[C@H](O)[C@H]2O)C[C@]2(C)[C@@H]1CC[C@@]13C[C@@H](CC[C@H]12)[C@](C)(O[C@@H]1O[C@H](CO)[C@@H](O)[C@H](O)[C@H]1O)C3 [Compound 10, 2β,16α-dihydroxy-ent-kaurane 2,16-di-O-β-D-glucopyranoside] |  |  |  |  | 88.2 ± 8 |  |  |
| 114 | CC1(C)C[C@@H](O[C@@H]2O[C@H](CO)[C@@H](O)[C@H](O)[C@H]2O)C[C@]2(C)[C@@H]1CC[C@@]13C[C@@H](CC[C@H]12)[C@@](O)(CO)C3 [Compound 12, 2β,16α,17-trihydroxy-ent-kaurane 2-O-β-D-glucopyranoside] |  |  |  |  | 93.6 ± 8.3 |  |  |
| 53.5 | COC(=O)[C@@H](N)CCCNC(N)=N[N+](=O)[O-] [L-NAME, Nω-nitro-L-arginine methyl ester, reference compound] |  |  |  |  | 100 ± 5 |  |  |
